This note sets out measurements from ChEMBL document CHEMBL1152033, “Spiro-piperidine non-peptide neurokinin-1 receptor antagonists” (Bioorg Med Chem Lett, 1995).

This assay deals with Substance-P receptor (Homo sapiens, UniProt P25103). Briefly: Binding affinity measured by displacement of tritiated radiolabeled substance P from cloned human NK1 receptor expressed in CHO cell membranes.

As a reminder, the Ki is the equilibrium dissociation constant of an inhibitor or competing ligand from its target. A high value points to a looser hold on the target.

Sequence of Substance-P receptor (P25103 whole entry): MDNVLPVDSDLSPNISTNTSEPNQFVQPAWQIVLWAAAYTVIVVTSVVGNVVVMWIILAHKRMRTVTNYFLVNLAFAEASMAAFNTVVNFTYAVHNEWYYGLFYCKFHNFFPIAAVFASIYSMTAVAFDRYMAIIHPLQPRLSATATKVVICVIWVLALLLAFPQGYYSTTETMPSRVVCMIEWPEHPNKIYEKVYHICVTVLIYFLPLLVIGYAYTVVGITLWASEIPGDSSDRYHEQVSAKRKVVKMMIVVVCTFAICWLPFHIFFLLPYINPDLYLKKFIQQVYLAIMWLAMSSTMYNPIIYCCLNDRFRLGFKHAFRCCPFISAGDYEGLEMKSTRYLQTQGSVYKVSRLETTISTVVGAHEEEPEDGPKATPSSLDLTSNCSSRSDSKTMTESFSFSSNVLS

The molecule `COc1ccccc1CN[C@H]1CCCN[C@]12CCc1ccccc12` had an inhibition constant (Ki) of 39.8 nM.

`COc1ccccc1CN[C@H]1CCCN[C@@]12CCc1ccccc12` had a Ki greater than 1000 nM.
